# Test results published in patent publication US12281299B2, “Control of nitrogen fixation in rhizobia that associate with cereals” (Massachusetts Institute of Technology, priority 2019, dated 2025).
# Where a name gives a salt, the structure may show the parent alone.
# Tested on: P. protegens Pf-5
# Assay: Genetic part characterization for P. protegens (promoters, RBSs, terminators, inducible systems; fluorescence reporter, flow cytometry)
# Assay type: cell-based, Pseudomonas protegens
# Details: P. protegens Pf-5, pRO1600 plasmid
# Text: Construction and characterization genetic parts for P. protegens. Genetic part libraries were built on a pRO1600-ori plasmid pMR-2 using Gibson assembly (New England Biolabs, Cat # E2611). The fluorescence proteins, GFPmut3b and mRFP1 were used as reporters. The Anderson promoter library on the BioBricks Registry were utilized for the characterization of constitutive promoters (FIGS. 11A-11C). The following combinations of cognate regulators and inducible promoters were characterized. IPTG inducible LacI-Ptac, DAPG inducible PhlF-PPhl, aTc inducible TetR-PTet, 3OC6HSL inducible LuxR-PLux, arabinose inducible AraC-PBAD, cuminic acid inducible CymR-PCym, and naringenin inducible FdeR-PFde were optimized (FIGS. 15A-15C). […] RBS library for GFP was designed using the RBS library calculator at the highest-resolution mode, and the 3′ end of the 16S rRNA sequences were adjusted according to the species (3′-ACCTCCTTA-5′ for P. protegens Pf-5). Terminators for T7 RNAP were characterized by placing a terminator between two fluorescence reporters expressed from a single T7 wild-type promoter located upstream of the first fluorescence protein GFP. The expression of the two fluorescence proteins is enabled by an IPTG-inducible T7 RNAP expression system of the controller strain MR7 (FIGS. 13A-13B). All genetic parts for P. protegens Pf-5 were characterized as follows.
row,Molecule,function of inducible system
1,"CCCC(=O)CC(=O)N[C@H]1CCOC1=O [3OC6HSL, N-(3-Oxohexanoyl)-L-homoserine lactone, reference compound]",functional
2,"Cc1c2c(c(O)c3c(O)cccc13)C(=O)[C@]1(O)C(=O)C(C(N)=O)=C(O)[C@@H](N(C)C)[C@@H]1C2 [aTc, Anhydrotetracycline hydrochloride, reference compound]",functional
3,"CC(C)c1ccc(C(=O)O)cc1 [cuminic acid, Cuminic acid, reference compound]",functional
4,"O=C1C[C@@H](c2ccc(O)cc2)Oc2cc(O)cc(O)c21 [naringenin, Naringenin, reference compound]",functional

# Same assay, conditions: synthetic RBS strength in P. protegens Pf-5; plasmid pMR-65, arabinose-inducible system, 7 μM arabinose induction
row,Molecule,"Strength (GFP, au) [au]"
1,R135132 (DNA CTAGCGAAGGTCCAACGTTTTTCTAAGCAAGGAGGTCATATG; chemistry not fully specified),21590
2,R135133 (DNA CTAGCGAAGGTCCAACGTTTTTCTAAGCCAGGAGGTCATATG; chemistry not fully specified),19690
3,R135135 (DNA CTAGCGAAGCTCCAACGTTTTTCTAAGCAAGGAGGTCATATG; chemistry not fully specified),17990
4,RBSp1 (DNA CTAGCGCAGGTCCAACGTTTTTCTAAGCAAGGAGGTCATATG; expressed or natural sequence),25090
5,RBSp4 (DNA CTAGCGCAGGTCCAACGTTTTTCTAAGCCAGGAGGTCATATG; expressed or natural sequence),19490
6,RBSp6 (DNA GAATTCTACACTAACGGACAGGAGGGTCCGATG; expressed or natural sequence),14490
7,RBSp7 (DNA GAATTCTAAACTAACGGACAGGAGGGTCCGATG; expressed or natural sequence),13390
8,RBSp8 (DNA GAATTCTAAGCTAACGGACAGGAGGGTCCGATG; expressed or natural sequence),12790
9,RBSp9 (DNA GAATTCTTAACTAACGGACAGGAGGGTCCGATG; expressed or natural sequence),11490
10,RBSp10 (DNA GAATTCTACACTAACGGACAGGAGGGTCGGATG; expressed or natural sequence),11090
11,RBSp11 (DNA GAATTCTACGCTAACGGACAGGAGGGTCCGATG; expressed or natural sequence),10390
12,RBSp12 (DNA GAATTCTCAACTAACGGACAGGAGGGTCCGATG; expressed or natural sequence),9590
13,RBSp13 (DNA GAATTCTAAGCTAACGGACAGGAGGGTCGGATG; expressed or natural sequence),8918
14,RBSp14 (DNA GAATTCTCAGCTAACGGACAGGAGGGTCCGATG; expressed or natural sequence),8766
15,RBSp15 (DNA GAATTCTCAACTAACGGACAGGAGGGTCCGATG; expressed or natural sequence),7596
16,RBSp16 (DNA GAATTCTACGCTAACGGACAGGAGGGTCGGATG; expressed or natural sequence),6055
17,RBSp17 (DNA GAATTCTCAACTAACGGACAGGAGATATACATATG; expressed or natural sequence),5939
18,RBSp18 (DNA GAATTCTCAGCTAACGGACAGGAGGGTCGGATG; expressed or natural sequence),5915
19,RBSp19 (DNA GAATTCTAAACTAACGGACAGGAGGGTCGGATG; expressed or natural sequence),4867
20,RBSp20 (DNA GAATTCTCAGCTCACGGACAGGAGGGTCGGATG; expressed or natural sequence),4426
21,RBSp21 (DNA GAATTCTCAACTAACGGACAGGAGGGTCGGGATG; expressed or natural sequence),4110
22,RBSp22 (DNA GAATTCTACACTCACGGACAGGAGGGTCGGATG; expressed or natural sequence),3977
23,RBSp23 (DNA GAATTCTAAGCTCACGGACAGGAGGGTCGGATG; expressed or natural sequence),3829
24,RBSp24 (DNA GAATTCTCAACTCACGGACAGGAGGGTCGGATG; expressed or natural sequence),3661
25,RBSp25 (DNA GAATTCTACACTAACGGACAGCAGGGTCGGATG; expressed or natural sequence),3542
26,RBSp27 (DNA GAATTCTCAGCTAACGGACAGCAGGGTCGGATG; expressed or natural sequence),1265
27,RBSp28 (DNA CTAGCGCAGGTCCAACCTTTTTCTAAGCAACTAGGTCATATG; expressed or natural sequence),389
28,RBSp29 (DNA CTAGCGAAGGTCCAACCTTTTTCTAAGCCAGTAGGTCATATG; expressed or natural sequence),377
29,RBSp30 (DNA GAATTCTACGCTCACGGACAGCAGGGTCGGATG; expressed or natural sequence),221
30,RBSp31 (DNA GAATTCTCCGCTCACGGACAGGAGGGTCCGATG; expressed or natural sequence),23.3

# Tested on: R. sp. IRBG74
# Assay: Genetic part characterization for Rhizobia (promoters, RBSs, terminators, inducible systems; fluorescence reporter, flow cytometry)
# Assay type: cell-based, Rhizobium sp.
# Details: synthetic RBS strength in R. sp. IRBG74; plasmid pMR-40, IPTG-inducible system, 1 mM IPTG induction
# Text: Construction and characterization genetic parts for Rhizobia. Genetic part libraries were built on a pBBR1-ori plasmid pMR-1 using Gibson assembly (New England Biolabs, Cat # E2611). The fluorescence proteins, GFPmut3b and mRFP1 were used as reporters. The Anderson promoter library (Anderson, J. et al. BglBricks: A flexible standard for biological part assembly. 4, 1 (2010)) on the BioBricks Registry were utilized for the characterization of constitutive promoters (FIGS. 11A-11C). To characterize inducible promoters, a regulator protein is constitutively expressed by the PlacIq promoter, and GFP expression is driven by a cognate inducible promoter from the opposite direction, facilitating replacement of the reporter with gene of interest (e.g., T7 RNAP and nifA) and transfer of the controller unit across different plasmid backbones for diverse microbes. The following combinations of cognate regulators and inducible promoters were characterized. IPTG inducible LacI-A1lacO1, DAPG inducible PhlF-PPhl, aTc inducible TetR-PTet, 3OC6HSL inducible LuxR-PLux, salicylic acid inducible NahR-PSal, and cuminic acid inducible CymR-PCym systems were optimized for R. sp. IRBG74 (FIG. 14). Opine inducible OccR-Pocc, and nopaline inducible NocR-Pnoc systems were optimized for A. caulinodans (FIGS. 20A-20F and Tables 9 and 10). For RBS characterization, an IPTG-inducible GFP expression plasmid pMR-40 was used and GFP was expressed to the highest levels with 1 mM IPTG (FIGS. 12A-12B). RBS library for GFP was designed using the RBS library calculator at the highest-resolution mode, and the 3′ end of the 16S rRNA sequences were adjusted according to the species (3′-ACCTCCTTC-5′ for R. sp. IRBG74). Terminators for T7 RNAP were characterized by placing a terminator between two fluorescence reporters expressed from a single T7 wild-type promoter located upstream of the first fluorescence protein GFP. The expression of the two fluorescence proteins is enabled by the controller strain MR18 encoding the IPTG-inducible T7 RNAP system by 1 mM IPTG (FIGS. 13A-13B). The terminator strength (Ts) was determined by normalizing fluorescence levels of a terminator construct by a reference construct pMR-66 where a 40 bp spacer was placed between the reporters. All genetic parts for Rhizobia were characterized as follows.
row,Molecule,"Strength (GFP, au) [au]"
1,RB5r1 (DNA ATTTCACACATCTAGAGCTAATCATCTCGTACTAAAGAGGAGAAATTAACCATG; chemistry not fully specified),8242
2,RB5r2 (DNA ATTTCACACATCTAGAGCTAATCATCGCGTACTCAGGAGGCAAGTAATG; chemistry not fully specified),7181.5
3,RB5r3 (DNA ATTTCACACATCTAGAATTAAAGAGGAGAAATTAACCATG; chemistry not fully specified),6238.5
4,RB5r4 (DNA TAACAATTTCACACATCTAGAGCTAATCATCTCGTACTAAAGAGGCAAGTAATG; chemistry not fully specified),3618
5,RB5r5 (DNA TAACAATTTCACACATCTAGAGCTAATCATCGCGTACTAAGGAGGCAAGTAATG; chemistry not fully specified),3560
6,RB5r6 (DNA TAACAATTTCACACATCTAGAGCTAATCATCGCGTACTCAAGAGGCAAGTAATG; chemistry not fully specified),2614.5
7,RB5r7 (DNA TAACAATTTCACACATCTAGAGCTAATCTTCGCGTACTAAAGAGGCAAGTAATG; chemistry not fully specified),2418.5
8,RB5r8 (DNA TAACAATTTCACACATCTAGAGCTAATCATCTCGTACTCAGGAGGCAAGTAATG; chemistry not fully specified),1882.5
